Results taken from US4986988A, “Isolation and structural elucidation of the cytostatic linear depsipeptides dolastatin 13 and dehydrodolastatin 13” (priority 1989, dated 1991).
≈ marks a conversion by molar mass, not a printed value. Where two headings read alike, the source gives them in different places.

Test system: P388 lymphocytic leukemia (PS System) cell line
Experiment: P388 lymphocytic leukemia in vitro cell line growth inhibition (PS bioassay)
Assay type: cell-based, murine
Experimental: Because of the dolastatin's potency, the sea hare seems to require only vanishingly small quantities (about 1 mg each from 100 kg), making isolation and structural elucidation of these peptides exceptionally challenging. Later another substance was isolated and determined to be a unique linear pentapeptide and was denominated "dolastatin 10".

## C/C=C1/NC(=O)C(NC(=O)C(NC(=O)C(CO)OC)C(C)C)C(C)OC(=O)C(C(C)C)NC(=O)C(Cc2ccccc2)N(C)C(=O)C(Cc2ccccc2)N2C(=O)C(CCC2O)NC1=O (centres unmarked) [dolastatin 13]
  ED50: 1.3 ng/mL (≈ 1.43 nM)
Listed as Dolastatin 13
  ED50: 13 ng/mL (≈ 14.3 nM)
